Values after ≈ are worked out from the molar mass of the structure shown. Where two headings read alike, the source gives them in different places. Where a SMILES comes first, the peptide text is derived from it.

In one series the test system is HaCaT and MCF-7 cells. Put plainly: MTT cytotoxicity. Particulars: for toxicity relative to the antimicrobial concentration range: mouse erythrocytes and human cells. Format: cell-based, human. The protocol:
Specifically, Thiazolyl blue tetrazolium bromide (MTT, Merck KGaA) was used to determine the cytotoxicity of PEP27 and its analogs against HaCaT (human keratinocyte […], n=4 per condition) and MCF-7 (human breast adenocarcinoma, n=3 per condition) cells. The cells were cultured in Dulbecco's modified Eagle's medium (DMEM) supplemented with 10 heat-inactivated fetal bovine serum (FBS, Gibco, Grand Island, NY, USA) and 1% penicillin-streptomycin (Gibco) at a density of 2×10^4 cells/well (96-well plate). Peptides were then added at various concentrations and incubated for 24 h at 37° C., after which MTT (final concentration, 0.5 mg/mL) was added to each well and incubated for 4 h. The formazan product was solubilized in DMSO, and the absorbance at 570 nm was measured to […] cytotoxicity. Cells treated with 0.1% Triton X-100 were used as the 100% cytotoxic control sample.

The test system of the next series is E. coli CCARM1229. Format: cell-based, Escherichia coli. Conditions: 37° C., 24 hours.
Another series relates to E. coli ATCC25922. Format: cell-based, Escherichia coli. The source says: (§1) Biofilms may form on a wide variety of surfaces, including living or dead surfaces, and biofilm-associated bacteria are more tolerant to antibiotics than planktonic bacterial cells, making them antibiotic-resistant. To assess the efficacy of PEP27-2 against biofilms, we observed the anti-biofilm activity of PEP27-2 in S. aureus (ATCC 25923 and CCARM 3090), E. coli (ATCC 25922 and CCARM 1238), and P. aeruginosa (ATCC 27853 and 4891).
(§2) Specifically, among the strains listed in Table 3 above, Staphylococcus aureus, E. coli and Pseudomonas erujinosa, respectively, were cultured in each medium to a mid-log phase, diluted to a cell concentration of 5×10^4 cells/100 μl, and then, inoculated into a micro-plate (SPL). Then, PEP27-2 peptide was diluted 1/10 times with 10 mM PBS solution (pH 7.2) and 10 μl of the solution was added to each well, followed by incubation at 37° C. for 24 hours. After completely removing the supernatant, the solution was fixed with 100% methanol for 15 minutes, stained with a crystal violet dye solution for 1 hour, washed 3 times, and then dissolved in 95% ethanol, followed by measuring the absorbance at a wavelength of 595 nm using a micro titration plate reader, thereby determining a biofilm minimal inhibitory concentration value for each strain.

Series [1] concerns E. coli ATCC27325. Format: cell-based, Escherichia coli.
Text: as §1, §2

The test system of series [2] is E. coli CCARM1238. Format: cell-based, Escherichia coli. Particulars: 37° C., 24 hours.
Text: as §1, §2

A further series deals with P. aeruginosa ATCC15692. Format: cell-based, Pseudomonas aeruginosa.
For series [3], the system named is E. coli ATCC27325. Format: cell-based, Escherichia coli. As for the experimental part: (§3) In order to evaluate the antimicrobial activity of the peptides prepared by the method of above 1, a minimal inhibitory concentration (MIC) value as the minimum concentration of a peptide, in which cells are not divided, was measured.
(§4) Specifically, the strains shown in Table 3 below were purchased, cultured in a medium having a constitutional composition suitable for each strain to a mid-log phase, and then diluted to a concentration of 2×10^4 cells/100 μl to prepare the product on a micro-titration plate (Nunc, USA). Then, PEP27, PEP27-1, PEP27-2 or PEP27-5 peptide synthesized in the above 1 was added to each well by serial dilution ½ times, followed by incubation at 37° C. for 18 hours.
This is another data set of the same source.

For series [4], the system named is E. coli CCARM1238. Format: cell-based, Escherichia coli. Particulars: E. coli CCARM1238, antibiotics-tolerant; 37° C., 18 hours. The protocol: as §3, §4
The subject of another series is S. aureus CCARM3090. Format: cell-based, Staphylococcus aureus. Particulars: 37° C., 24 hours.
Text: as §1, §2

In a further series the test system is S. aureus CCARM3089. Format: cell-based, Staphylococcus aureus. Conditions: 37° C., 24 hours.
Text: as §1, §2

The test system of another series is S. aureus ATCC25923. Format: cell-based, Staphylococcus aureus.
Text: as §1, §2

A further series has as its system S. aureus ATCC29213. Format: cell-based, Staphylococcus aureus.
Text: as §1, §2

A further series relates to S. aureus CCARM3518. Format: cell-based, Staphylococcus aureus. Particulars: 37° C., 24 hours.
Text: as §1, §2

The test system of another series is L. monocytogens KCTC3710. Format: cell-based, Listeria monocytogenes. As for the experimental part: as §3, §4

As for `CC[C@H](C)[C@H](NC(=O)CN)C(=O)NCC(=O)N[C@@H](C)C(=O)N[C@H](C(=O)N[C@@H](CC(C)C)C(=O)N[C@@H](CCCCN)C(=O)N[C@H](C(=O)N[C@@H](CC(C)C)C(=O)N[C@H](C(=O)N[C@H](C(=O)NCC(=O)N[C@@H](CC(C)C)C(=O)N1CCC[C@H]1C(=O)N[C@@H](C)C(=O)N[C@@H](CC(C)C)C(=O)N[C@H](C(=O)N[C@@H](CO)C(=O)N[C@@H](Cc1c[nH]c2ccccc12)C(=O)N[C@H](C(=O)N[C@@H](CCCCN)C(=O)N[C@@H](CCCNC(=N)N)C(=O)N[C@@H](CCCCN)C(=O)N[C@@H](CCCNC(=N)N)C(=O)N[C@@H](CCC(N)=O)C(=O)N[C@@H](CCC(N)=O)C(N)=O)[C@@H](C)CC)[C@@H](C)CC)[C@@H](C)O)[C@@H](C)O)C(C)C)C(C)C` [Melittin, reference compound], the “toxicity relative to the antimicrobial concentration range” value with HaCaT and MCF-7 cells is given as “begins to show toxicity within the range of antibacterial activity”. Also, the “Biofilm minimal inhibitory concentration” value in the series with E. coli CCARM1229 stood at 4 µM; in the series on E. coli ATCC25922 (E. coli ATCC25922, 37° C., 24 hours), 4 µM; with E. coli ATCC27325 [1] (E. coli ATCC27325, 37° C., 24 hours), 4 µM; in the series with E. coli CCARM1238 [2], 4 µM; with P. aeruginosa ATCC15692 (P. aeruginosa ATCC15692, 37° C., 24 hours) it was 4 µM; in the series with S. aureus CCARM3090, 4 µM. Besides, the “Biofilm minimal inhibitory concentration” value in the series on S. aureus CCARM3089 was 4 µM; in the series with S. aureus ATCC25923 (S. aureus ATCC25923, 37° C., 24 hours), 4 µM; in the series on S. aureus ATCC29213 (S. aureus ATCC29213, 37° C., 24 hours) it was 4 µM; with S. aureus CCARM3518, 8 µM. Also, the Minimal inhibitory concentration stood at 2 µM (≈ 5.69 µg/mL) with E. coli ATCC27325 [3] (E. coli ATCC27325, Gram-negative, 37° C., 18 hours); 4 µM (≈ 11.4 µg/mL) in the series with E. coli CCARM1238 [4]; 4 µM (≈ 11.4 µg/mL) in the series with L. monocytogens KCTC3710 (L. monocytogens KCTC3710, Gram-positive, 37° C., 18 hours).

On to `CSCC[C@H](N)C(=O)N[C@@H](Cc1c[nH]c2ccccc12)C(=O)N[C@@H](CCCCN)C(=O)N[C@@H](Cc1c[nH]c2ccccc12)C(=O)N[C@@H](Cc1ccccc1)C(=O)N[C@@H](Cc1c[nH]cn1)C(=O)N[C@@H](CC(N)=O)C(=O)N[C@H](C(=O)N[C@@H](CC(C)C)C(=O)N[C@@H](CO)C(=O)N[C@@H](Cc1c[nH]c2ccccc12)C(=O)NCC(=O)N[C@@H](Cc1c[nH]c2ccccc12)C(=O)N[C@@H](CC(C)C)C(=O)N[C@@H](CC(C)C)C(=O)N[C@@H](C)C(=O)N[C@@H](CC(=O)O)C(=O)N[C@@H](CCCCN)C(=O)N[C@@H](CCCNC(=N)N)C(=O)N1CCC[C@H]1C(=O)N[C@@H](C)C(=O)N[C@@H](CCCNC(=N)N)C(=O)N[C@@H](CC(=O)O)C(=O)N[C@@H](Cc1ccc(O)cc1)C(=O)N[C@@H](CC(N)=O)C(=O)N[C@@H](CCCNC(=N)N)C(=O)N[C@@H](CCCCN)C(N)=O)C(C)C` [PEP27-2] (H-MWKWFHNVLSWGWLLADKRPARDYNRK-NH2), for which the cell viability with HaCaT and MCF-7 cells (100 μM, 24 h, MTT, HaCaT and MCF-7 cells) is on record as 19%-23%. The “toxicity relative to the antimicrobial concentration range” value with HaCaT and MCF-7 cells is “not toxic within the range of antimicrobial activity or 4×MIC concentration”. Moreover, the “Biofilm minimal inhibitory concentration” value in the series with E. coli CCARM1229 worked out at 8 µM; in the series with E. coli ATCC25922 (ATCC25922, 24 h), 8 µM; with E. coli ATCC27325 [1] (ATCC27325, 24 h), 8 µM; in the series with E. coli CCARM1238 [2], 8 µM; in the series on P. aeruginosa ATCC15692 (ATCC15692, 24 h) it was 8 µM; with S. aureus CCARM3090, 4 µM. Besides, the “Biofilm minimal inhibitory concentration” value with S. aureus CCARM3089 worked out at 4 µM; with S. aureus ATCC25923 (ATCC25923, 24 h), 4 µM; with S. aureus ATCC29213 (ATCC29213, 24 h), 4 µM; in the series on S. aureus CCARM3518, 4 µM. Besides, the “maximum percent biofilm inhibition” value in the series on E. coli ATCC25922 (ATCC25922) is given as 91.8%; in the series with S. aureus ATCC25923 (ATCC25923) it was 83.4%. Moreover, the Minimal inhibitory concentration in the series with E. coli ATCC27325 [3] (ATCC27325, 18 h) stood at 4 µM (≈ 13.9 µg/mL); with E. coli CCARM1238 [4] it was 4 µM (≈ 13.9 µg/mL); with L. monocytogens KCTC3710 (KCTC3710, 18 h) it was 8 µM (≈ 27.8 µg/mL).

For the origin of these results see US12180252B2, “Peptide derived from PEP27 peptide and uses thereof” (priority 2021, dated 2024).
